Measurements taken from ChEMBL document CHEMBL1143063, “Discovery of 3-piperidinyl-1-cyclopentanecarboxamide as a novel scaffold for highly potent CC chemokine receptor 2 antagonists” (J Med Chem, 2007).
Blank lines part the entries; values can stand above or below the molecule they belong to. Activity calls are given as the source filed them. The rule behind the calls is not given here.

Assays:
[1] = molecular target: T1, C-C chemokine receptor type 2 (Homo sapiens, UniProt P41597); assay: Displacement of [125]hMCP1 from human CCR2 receptor expressed in human monocytes at 1 uM; type: cell-based
Target sequence in this assay (P41597 whole entry, looked up): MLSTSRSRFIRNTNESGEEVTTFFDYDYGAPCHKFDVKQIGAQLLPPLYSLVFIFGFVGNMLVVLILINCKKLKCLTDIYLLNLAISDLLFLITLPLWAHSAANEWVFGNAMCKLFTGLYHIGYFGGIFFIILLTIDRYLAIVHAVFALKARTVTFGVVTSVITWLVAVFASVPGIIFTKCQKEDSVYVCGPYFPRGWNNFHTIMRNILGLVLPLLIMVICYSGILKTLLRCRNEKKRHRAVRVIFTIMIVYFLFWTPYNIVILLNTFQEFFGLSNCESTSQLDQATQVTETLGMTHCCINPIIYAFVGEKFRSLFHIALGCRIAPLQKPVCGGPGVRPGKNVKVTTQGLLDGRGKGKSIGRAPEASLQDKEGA

[2] = Plasma clearance in rat; type: ADME, organism-based
[3] = Volume of distribution in rat; type: ADME, organism-based; details: in vivo, read-out: Vss
[4] = Oral bioavailability in rat; type: ADME, organism-based; details: in vivo
[5] = molecular target: C-C chemokine receptor type 2 (Mus musculus, UniProt P51683); assay: (§1) Displacement of [125]hMCP1 from mouse CCR2 receptor expressed in CHO cells; type: cell-based
Chain of C-C chemokine receptor type 2 (Mus musculus, UniProt P51683) (P51683 whole entry): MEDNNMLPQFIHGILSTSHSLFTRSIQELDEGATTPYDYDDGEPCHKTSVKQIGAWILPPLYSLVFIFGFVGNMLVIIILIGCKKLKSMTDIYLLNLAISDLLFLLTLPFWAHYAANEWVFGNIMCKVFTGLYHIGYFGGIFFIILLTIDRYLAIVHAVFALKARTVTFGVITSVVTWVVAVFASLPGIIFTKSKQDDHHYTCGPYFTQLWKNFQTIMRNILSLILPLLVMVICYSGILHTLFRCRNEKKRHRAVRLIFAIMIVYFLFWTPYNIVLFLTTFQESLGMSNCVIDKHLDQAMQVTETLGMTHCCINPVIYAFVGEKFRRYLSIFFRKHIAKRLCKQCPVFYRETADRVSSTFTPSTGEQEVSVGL

[6] = molecular target: T1, C-C chemokine receptor type 2; assay: Displacement of [125]hMCP1 from human CCR2 receptor expressed in human monocytes; type: cell-based
[7] = Half life in rat; type: ADME, organism-based; details: in vivo
[8] = molecular target: C-C chemokine receptor type 5 (Homo sapiens, UniProt P51681); assay: Displacement of MIP1alpha from CCR5 receptor
Chain of C-C chemokine receptor type 5 (P51681 whole entry): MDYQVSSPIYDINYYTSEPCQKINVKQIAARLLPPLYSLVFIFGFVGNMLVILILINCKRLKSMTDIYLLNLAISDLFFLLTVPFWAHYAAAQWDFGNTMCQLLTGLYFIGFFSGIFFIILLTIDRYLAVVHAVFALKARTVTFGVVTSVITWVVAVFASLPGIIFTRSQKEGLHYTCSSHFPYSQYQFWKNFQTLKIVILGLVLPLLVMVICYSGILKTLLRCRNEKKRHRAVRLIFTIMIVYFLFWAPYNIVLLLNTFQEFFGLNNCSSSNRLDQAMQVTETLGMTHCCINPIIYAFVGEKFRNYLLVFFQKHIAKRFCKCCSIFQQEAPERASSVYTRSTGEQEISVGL

[9] = molecular target: C-C chemokine receptor type 2 (Mus musculus) (UniProt P51683); assay: Displacement of [125]hMCP1 from mouse CCR2 receptor expressed in CHO cells at 1 uM; type: cell-based
Chain of C-C chemokine receptor type 2 (Mus musculus) (P51683 whole entry, looked up): as the sequence (P51683 whole entry) above

[10] = molecular target: C-C chemokine receptor type 2 (Mus musculus) (UniProt P51683); assay: as §1; type: cell-based
[11] = molecular target: T1, C-C chemokine receptor type 2; assay: Antagonist activity against human CCR2 receptor assessed as inhibition of MCP1-induced calcium flux in human monocytes; type: functional, cell-based
Target sequence in this assay (P41597 whole entry): as the sequence (P41597 whole entry, looked up) above

Compound: C[C@H]1CN([C@@H]2CC[C@](C)(C(=O)NCc3cc(C(F)(F)F)cc(C(F)(F)F)c3)C2)CC[C@@]12C=Cc1ccccc12
clearance [2]: 50 mL/min/kg
Vd [3]: 6 L/kg
bioavailability [4]: 15%
IC50 [5]: 130 nM
IC50 [6]: 1.3 nM
half-life [7]: 8.1 h
IC50 [8]: 630 nM

Compound: C[C@]1(C(=O)NCc2cc(C(F)(F)F)cc(C(F)(F)F)c2)CC[C@@H](N2CCC3(C=Cc4ccccc43)CC2)C1
Activity [9]: 27%
IC50 [6]: 47 nM

Compound: O=C(NCc1cc(C(F)(F)F)cc(C(F)(F)F)c1)[C@H]1CC[C@@H](N2CCC3(C=Cc4ccccc43)CC2)C1
Activity [10]: inactive
IC50 [6]: 7.5 nM

Compound: CC1C[C@@H](N2CC[C@@]3(C=Cc4ccccc43)[C@@H](C)C2)C[C@H]1C(=O)NCc1cc(C(F)(F)F)cc(C(F)(F)F)c1 (some centres undefined)
Activity [10]: inactive
IC50 [6]: > 1000 nM

Compound: O=C1C(CCN2CCC(c3ccccc3)CC2)CCN1Cc1cc(C(F)(F)F)cc(C(F)(F)F)c1 (centres undefined)
Activity [6]: inactive

Compound: O=C1C(CCN2CCC(c3ccccc3)CC2)CCCN1Cc1cc(C(F)(F)F)cc(C(F)(F)F)c1 (centres undefined)
Activity [6]: inactive

Compound: C[C@H]1CN([C@@H]2CC[C@H](C(=O)NCc3cc(C(F)(F)F)cc(C(F)(F)F)c3)C2)CC[C@@]12C=Cc1ccccc12
Activity [9]: 27%
IC50 [11]: 2.3 nM
IC50 [6]: 1.4 nM

More lines, now with the values ahead:

Activity [1]: 23%
Compound: O=C(NCc1cc(C(F)(F)F)cc(C(F)(F)F)c1)C1CCCC(N2CCC(c3ccccc3)CC2)C1 (centres undefined)

Activity [1]: 25%
Compound: O=C(NCc1cc(C(F)(F)F)cc(C(F)(F)F)c1)[C@@H]1CC[C@@H](N2CCC(c3ccccc3)CC2)C1

IC50 [6]: 65 nM
Compound: O=C(NCc1cc(C(F)(F)F)cc(C(F)(F)F)c1)C1CCC(N2CCC(c3ccccc3)CC2)C1 (centres undefined)

IC50 [6]: 36 nM
Compound: O=C(NCc1cc(C(F)(F)F)cc(C(F)(F)F)c1)[C@H]1CC[C@@H](N2CCC(c3ccccc3)CC2)C1

Activity [1]: 30%
Compound: O=C(NCc1cc(C(F)(F)F)cc(C(F)(F)F)c1)[C@@H]1CC[C@H](N2CCC(c3ccccc3)CC2)C1

Activity [1]: 44%
Compound: O=C(NCc1cc(C(F)(F)F)cc(C(F)(F)F)c1)[C@H]1CC[C@H](N2CCC(c3ccccc3)CC2)C1
